The numbers were not newly measured in patent publication US20170189402A1, “SOLID DOSAGE FORMS” (AbbVie Inc., priority 2012, published 2017), which cites them from elsewhere.

The structures appear in SMILES notation.

For data set [1] the following is noted: administered orally.

In the case of `Nc1ccn([C@@H]2CS[C@H](CO)O2)c(=O)n1` [Lamivudine], the bioavailability result in data set [1] was “over 80%”.

On to `Cc1cccc(C)c1OCC(=O)N[C@@H](Cc1ccccc1)[C@@H](O)C[C@H](Cc1ccccc1)NC(=O)[C@H](C(C)C)N1CCCNC1=O` [lopinavir], for which the solubility result is “poorly soluble”.
